Experimental data taken from patent US7494980B2, “Antimicrobial peptide and methods of use thereof” (The United States of America as represented by the …, priority 2003, dated 2009).
Ends that are not written are not given here.

Legend:
S. mutans ATCC 25175 [1] = experiment: In vitro susceptibility (broth microdilution MIC, MBC by spiral-plating); format: cell-based, Streptococcus mutans
From the text: (§1) Strains used in Examples 3-6 included ATCC and laboratory strains of different oral bacteria. These included: Actinomyces naeslundii strain T14V-J1, Actinomyces israelii ATCC 10049, Streptococcus mutans strains LT 11 and ATCC 25175, Streptococcus sobrinus ATCC 33478, Streptococcus gordonii strains DL1 and ATCC 51656, Streptococcus sanguis strains SK36 and ATCC 10556, Streptococcus salivarius ATCC 9222, Streptococcus oralis strains 34 and ATCC 35037, Lactobacillus salivarius ATCC 29602, Lactobacillus acidophilus ATCC 4357, and Actinobacillus actinomycetemcomitans ATCC 43718. S. mutans strain LT 11 was kindly provided by Lin Tao, University of Illinois at Chicago, Ill. S. gordonii DLI, S. sanguis SK36, and S. oralis 34 were provided by John Cisar, National Institute of Dental and Craniofacial Research, NIH, Bethesda, Md.
(§2) Todd-Hewitt broth (THB), brain heart infusion (BHI) broth, Todd-Hewitt agar (THA), trypticase soy agar (TSA), lactobacilli MRS (MRS) broth, Actinomyces broth and Mueller-Hinton broth (MHB) were purchased from Becton Dickinson. Blood agar plates (BAP) were prepared by supplementing TSA with 5% sheep blood (PML Microbiologicals). All cultures, except for Actinobacillus actinomycetemcomitans, S. mitis and Actinomyces israelii, were grown at 37° C. in room air. Actinobacillus actinomycetemcomitans cultures were grown on BAP or in MHB supplemented with 15 μg haemin ml^−1 (Sigma), 15 μg β-nicotinamide adenine dinucleotide (NAD) ml^−1 (Sigma) and 5% yeast extract (Becton Dickinson) at 37° C. in 5% CO2. S. mitis was grown on BAP or in BHI broth at 37° C. in 5% CO2. […]
(§3) MICs were determined as described by Fuchs et al. (1998) with a slight modification. […] The MIC was defined as the lowest concentration of the peptide that prevented visible turbidity, as measured at 600 nm by using an ELISA reader (Titertek Multiskan MCC/340). […] Minimum bactericidal concentrations (MBCs) were determined by spiral-plating (Spiral Plater Autoplate 4000; Spiral Biotech) 50 μl from each clear well (≧MIC) onto BAP.

S. mutans LT11 = experiment: as above; format: cell-based, Streptococcus mutans; settings: 4 × 10^7 cells ml^−1, 24-48 h
From the text: as §1, with “Md. […]” for “Md.”
as §3

S. gordonii ATCC 51656 [2] = experiment: as above; format: cell-based, Streptococcus gordonii; settings: 24-48 h
From the text: as §1
(§4) Todd-Hewitt broth (THB), brain heart infusion (BHI) broth, Todd-Hewitt agar (THA), trypticase soy agar (TSA), lactobacilli MRS (MRS) broth, Actinomyces broth and Mueller-Hinton broth (MHB) were purchased from Becton Dickinson. Blood agar plates (BAP) were prepared by supplementing TSA with 5% sheep blood (PML Microbiologicals). All cultures, except for Actinobacillus actinomycetemcomitans, S. mitis and Actinomyces israelii, were grown at 37° C. in room air. Actinobacillus actinomycetemcomitans cultures were grown on BAP or in MHB supplemented with 15 μg haemin ml^−1 (Sigma), 15 μg β-nicotinamide adenine dinucleotide (NAD) ml^−1 (Sigma) and 5% yeast extract (Becton Dickinson) at 37° C. in 5% CO2. S. mitis was grown on BAP or in BHI broth at 37° C. in 5% CO2. Actinomyces israeilli was grown anaerobically in an anaerobic chamber (Coy Laboratory Products) in a 5% CO2/10% H2/85% N2 atmosphere.
(§5) MICs were determined as described by Fuchs et al. (1998) with a slight modification. Procedures were based on the National Committee for Clinical Laboratory Standards broth microdilution method. MHB was used as the main assay medium for most of the tested organisms. Freshly grown cultures at exponential phase were used as the inoculum. Bacteria were centrifuged at 4000 r.p.m. for 15 min at 4° C., suspended in 2× concentrated medium and adjusted to 4×106 c.f.u ml−1 in 2× concentrated medium. Aqueous peptide solution (100 μl) was added to each well of a 96-well, flat-bottomed plate (Becton Dickinson). […] The MIC was defined as the lowest concentration of the peptide that prevented visible turbidity, as measured at 600 nm by using an ELISA reader (Titertek Multiskan MCC/340). […] Minimum bactericidal concentrations (MBCs) were determined by spiral-plating (Spiral Plater Autoplate 4000; Spiral Biotech) 50 μl from each clear well (≧MIC) onto BAP.

S. gordonii DL1 = experiment: as above; format: cell-based, Streptococcus gordonii; settings: 24-48 h
From the text: as §1, §4, §5

S. sanguis ATCC 10556 = experiment: as above; format: cell-based, Streptococcus sanguis; settings: 24-48 h
From the text: as §1, §4, §5

S. sanguis SK36 = experiment: as above; format: cell-based, Streptococcus sanguis; settings: 24-48 h
From the text: as §1, §4, §5

S. oralis ATCC 35037 = experiment: as above; format: cell-based, Streptococcus oralis; settings: 24-48 h
From the text: as §1, with “Md. […]” for “Md.”
as §3

S. sobrinus ATCC 33478 = experiment: as above; format: cell-based, Streptococcus sobrinus
From the text: as §1, §2, §3

S salivarius ATCC 9222 = experiment: as above; format: cell-based, Streptococcus salivarius; settings: 24-48 h
From the text: as §1, with “Md. […]” for “Md.”
as §3

[3] = test system: Actinomyces israelii ATCC 10049; experiment: as above; format: cell-based; settings: 24-48 h
From the text: as §1, §4
(§6) MICs were determined as described by Fuchs et al. (1998) with a slight modification. Procedures were based on the National Committee for Clinical Laboratory Standards broth microdilution method. MHB was used as the main assay medium for most of the tested organisms. Freshly grown cultures at exponential phase were used as the inoculum. Bacteria were centrifuged at 4000 r.p.m. for 15 min at 4° C., suspended in 2× concentrated medium and adjusted to 4×106 c.f.u ml−1 in 2× concentrated medium. Aqueous peptide solution (100 μl) was added to each well of a 96-well, flat-bottomed plate (Becton Dickinson). The peptide solution was serially diluted (twofold) with sterile distilled water in the wells, with final peptide concentrations ranging from 3.13 to 200 μg ml−1. After dispensing 100 μl aliquots of bacterial suspension into the wells, the 96-well plates were incubated at 37° C. for 24-48 h in room air, CO2 or anaerobically. The MIC was defined as the lowest concentration of the peptide that prevented visible turbidity, as measured at 600 nm by using an ELISA reader (Titertek Multiskan MCC/340). […] Minimum bactericidal concentrations (MBCs) were determined by spiral-plating (Spiral Plater Autoplate 4000; Spiral Biotech) 50 μl from each clear well (≧MIC) onto BAP.

[4] = test system: Actinomyces naeslundii T14V-J1; experiment: as above; format: cell-based; settings: 24-48 h
From the text: as §1, §4, §6

S. mitis ATCC = experiment: as above; format: cell-based; settings: 24-48 h
From the text: as §1, §4, §6

[5] = test system: Actinobacillus actinomycetemcomitans ATCC 43718; experiment: as above; format: cell-based; settings: 4 × 10^7 cells ml^−1, 24-48 h
From the text: as §1, with “Md. […]” for “Md.”
as §3

L. salivarius ATCC 29602 [6] = experiment: as above; format: cell-based, Lactobacillus salivarius; settings: 24-48 h
From the text: as §1, with “Md. […]” for “Md.”
as §3

L. acidophilus ATCC 4357 = experiment: as above; format: cell-based, Lactobacillus acidophilus
From the text: as §1, §2, §3

L. salivarius ATCC 29602 [7] = experiment: Bactericidal assay (log reduction in viable counts); format: cell-based, Lactobacillus salivarius
From the text: as §1
(§7) The bactericidal assay was performed according to procedures described by Miyasaki et al. (1997, 1998) with a slight modification. […] Susceptibility was determined by examining the log reduction in viability counts of organisms that had been exposed to different concentrations of KSL. […] Bactericidal activity was also expressed as the 99% effective dose (ED99), which is the concentration of the antimicrobial decapeptide at which there is a 2-log or more reduction in c.f.u. […]
(§8) In addition to the determinations of MICs and MBCs of KSL, log reductions in viable counts of selected oral bacteria caused by KSL were also determined. […] With the exception of Actinobacillus actinomycetemcomitans, for which the assays were performed in 0.01% BHI, bactericidal action of KSL was determined in isotonic HBSS after incubation with the targeted bacteria for 1 h at 37° C. KSL at 6.25 μg ml^−1, which was determined to be the 99% effective dose (ED99), caused more than 2 log reductions in viable counts of the organisms tested, which included L. salivarius ATCC 29602 (FIG. 3a), S. mutans ATCC 25175^T (FIG. 3b), S. gordonii ATCC 51656 (FIG. 3c), and Actinobacillus actinomycetemcomitans ATCC 43718 (FIG. 3d).

S. mutans ATCC 25175 [8] = experiment: as above; format: cell-based, Streptococcus mutans
From the text: as §1, §7, §8

S. gordonii ATCC 51656 [9] = experiment: as above; format: cell-based, Streptococcus gordonii
From the text: as §1, §7, §8

[10] = test system: Actinobacillus actinomycetemcomitans ATCC 43718; experiment: as above; format: cell-based
From the text: as §1, §7, §8

[11] = test system: saliva bacteria (facultative anaerobic oral bacteria collected from saliva); experiment: In vitro killing of saliva bacteria; format: cell-based; settings: 200 μg KSL ml^−1, 30 min at 37° C., vs PBS
Protocol: The killing assay of saliva bacteria was done according to procedures established by Helmerhorst et al. (1999). Unstimulated saliva was collected from four healthy individuals who had refrained from eating for at least 2 hours. The study was approved by the Institutional Review Board of the Walter Reed Army Institute of Research and informed consent and sample donation consent were obtained from all volunteers. Pooled saliva was initially spun at 500 r.p.m. in an Eppendorf centrifuge (model 5810R) for 10 min at 4° C. to remove epithelial cells and mucus. Saliva bacteria were collected by spinning the supernatant at 4000 r.p.m. for 15 min at 4° C. The pellet was washed three times in 10 mM potassium phosphate buffer (PPB) and suspended in the same buffer to give approximately 1.0×10^7 cells ml^−1. Bacterial suspension (250 μl) was mixed with 250 μl peptide to obtain final peptide concentrations of 12.5, 25, 50, 100 and 200 μg ml^−1. After incubation of the mixture at 37° C. for 30 min, cells were spun down to remove KSL, washed once in PBS having a pH of 7.4 and suspended in PBS before spiral-plating 50 μl of the treated and untreated cells in different dilutions on BAP. The negative control was exposed to buffer only. Saliva bacteria exposed to 0.12% aqueous chlorhexidine served as positive controls. […]

[12] = MHB, 4 × 10^6 cells ml^−1, 37° C., 24-48 h
[13] = clear MIC wells plated on BAP, 24-48 h
[14] = MHB, 4 × 10^6 cells ml^−1, 37° C.

KKVVFKVKFK-NH2 [KSL, lys-lys-val-val-phe-lys-val-lys-phe-lys]
1.05 log: log reduction in facultative anaerobes in saliva [11]
25 µg/mL: MIC (S. mutans LT11; MHB, 37° C.) | MIC (S. sanguis ATCC 10556; [14]) | MIC (S. sanguis SK36; [14]) | MIC (S. sobrinus ATCC 33478; [12]) | MIC (S. mitis ATCC; BHI, 5% CO2, 4 × 10^6 cells ml^−1, 37° C.)
3.13 µg/mL: MIC ([4]; MHB or modified broth, 4 × 10^6 cells ml^−1, 37° C.) | MIC (L. salivarius ATCC 29602 [6]; 10% MRS, 4 × 10^6 cells ml^−1, 37° C.) | MIC (L. acidophilus ATCC 4357; 10% MRS, 4 × 10^6 cells ml^−1, 37° C., 24-48 h)
200 µg/mL: MBC (S. oralis ATCC 35037; clear MIC wells plated on BAP) | MBC ([5]; clear MIC wells plated on BAP)
6.25 µg/mL: MIC (S. mutans ATCC 25175 [1]; [12]) | MIC ([3]; 20% Actinomyces broth, anaerobic, 4 × 10^6 cells ml^−1, 37° C.) | ED99 (99% effective dose) (L. salivarius ATCC 29602 [7]; isotonic HBSS, 1 h at 37° C.) | ED99 (99% effective dose) (S. mutans ATCC 25175 [8]; isotonic HBSS, 1 h at 37° C.) | ED99 (99% effective dose) (S. gordonii ATCC 51656 [9]; isotonic HBSS, 1 h at 37° C.) | ED99 (99% effective dose) ([10]; 0.01% BHI, 1 h at 37° C.)
100 µg/mL: MBC (S. mutans LT11; clear MIC wells plated on BAP) | MBC (S. gordonii ATCC 51656 [2]; clear MIC wells plated on BAP) | MBC (S. gordonii DL1; clear MIC wells plated on BAP) | MBC (S. sanguis ATCC 10556; clear MIC wells plated on BAP) | MIC (S. oralis ATCC 35037; [14]) | MBC (S salivarius ATCC 9222; clear MIC wells plated on BAP) | MIC ([5]; 50% BHI, 5% CO2, 37° C.)
more than 2 log: log reduction in viable counts (L. salivarius ATCC 29602 [7]; 6.25 μg ml^−1, HBSS, FIG. 3a) | log reduction in viable counts (S. mutans ATCC 25175 [8]; 6.25 μg ml^−1, HBSS, FIG. 3b) | log reduction in viable counts (S. gordonii ATCC 51656 [9]; 6.25 μg ml^−1, HBSS, FIG. 3c) | log reduction in viable counts ([10]; 6.25 μg ml^−1, 0.01% BHI, FIG. 3d)
12.5 µg/mL: MBC (S. mutans ATCC 25175 [1]; [13]) | MBC ([3]; clear MIC wells plated on BAP) | MBC ([4]; clear MIC wells plated on BAP) | MBC (L. salivarius ATCC 29602 [6]; clear MIC wells plated on BAP) | MBC (L. acidophilus ATCC 4357; [13])
> 3 logs: reduction in viability (L. salivarius ATCC 29602 [7]; concentrations of <10 μg ml^−1) | reduction in viability (S. mutans ATCC 25175 [8]; concentrations of <10 μg ml^−1) | reduction in viability (S. gordonii ATCC 51656 [9]; concentrations of <10 μg ml^−1) | reduction in viability ([10]; concentrations of <10 μg ml^−1)
50 µg/mL: MIC (S. gordonii ATCC 51656 [2]; [14]) | MIC (S. gordonii DL1; [14]) | MBC (S. sanguis SK36; clear MIC wells plated on BAP) | MBC (S. sobrinus ATCC 33478; [13]) | MIC (S salivarius ATCC 9222; [14]) | MBC (S. mitis ATCC; clear MIC wells plated on BAP)
< 25 µg/mL: concentration inhibiting growth effectively (S. mutans ATCC 25175 [1]) | concentration inhibiting growth effectively (S. sobrinus ATCC 33478) | concentration inhibiting growth effectively (L. acidophilus ATCC 4357)
